Laboratory results: PubChem BioAssay (NCI)
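Five concentrations, 48 hours, 96-well plates. Abbreviation: GI50, concentration required for 50% inhibition of growth. TGI marks complete inhibition of growth.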

Test system: MDA-MB-468 breast
Experiment: growth of human tumour cells (NCI), 48 h

| Structure (SMILES) | GI50 | TGI |
| --- | --- | --- |
| O=c1[nH]cnc2c1nnn2C1OC(CO)C(O)C1O (centres undefined) | 0.577 µM | 22 µM |
| N#Cc1cccc(C(=O)c2cnn(-c3ccc(F)cc3)c2N)c1 | > 25 µM | > 25 µM |
| Cn1c(=O)c(Oc2cccc(F)c2)cc2cnc(NC3CCOCC3)nc21 | > 25 µM | > 25 µM |
| Cc1ccccc1S(=O)(=O)N1[C@H](c2ccc(Cl)cc2)C(C(=O)N[C@@H](Cc2ccccc2)C(N)=O)=C[C@@H]1C(C)(C)C | 4.13 µM | 12.5 µM |
| CN(C)c1ccc(C(=O)c2ccc(N(C)C)c(N)c2)cc1N | 0.781 µM | 4.72 µM |
| CCCCCCCCCCCCCCCC(=O)OCC1OC(n2cnc3c(=S)nc(N)[nH]c32)C(OC(=O)CCCCCCCCCCCCCCC)C1OC(=O)CCCCCCCCCCCCCCC (centres undefined) | 1.39 µM | > 50 µM |
| N#Cc1c2ccccc2c2n1-c1ccccc1OC(c1ccccc1)C2=O (centres undefined) | 3.26 µM | 13.1 µM |
| CCN(CC)CCOc1ccc(Nc2ncc3cc(-c4c(Cl)cccc4Cl)c(=O)n(CCOC)c3n2)cc1 | 1.26 µM | 3.99 µM |
| CCOC(=O)c1cc2c(n1Cc1cc(OC)cc(OC)c1)-c1oncc1CCC2 | 0.0474 µM | > 100 µM |
| COc1ccc(C2=CC(c3cc(OC)c(OC)c(OC)c3)NC(=O)N2)cc1OC (centres undefined) | 3.21 µM | 15.1 µM |
| N#Cc1ccc(/C=N/NC(=O)c2[nH]c3ccc(Br)cc3c2-c2ccccc2)s1 | 0.292 µM | 10.3 µM |
| c1cc(C2CCCCC2)ccc1OCCCCCCN1CCNCC1 | 1.91 µM | 3.67 µM |
| CSc1ccc(-c2cc(-c3ccc(NC(=O)CCCN4CCCC4)cc3)nc(-c3ccc(NC(=O)CCCN4CCCC4)cc3)c2)cc1 | 1.56 µM | 3.03 µM |
| O=C(CCCCCCNC(=O)C(O)(O)C(F)(F)F)Nc1ncc(-c2ccc(Br)cc2)s1 | 0.752 µM | 5.35 µM |
| C=C1C(=O)O[C@H]2[C@H]1CC/C(CNC(=O)/C=C/c1cccc(OC)c1)=C\CC[C@@]1(C)O[C@@H]21 | 0.485 µM | 2.13 µM |
| CCN(CC)c1ccc(N=C2C=C(C(=O)Nc3ccc(S(C)(=O)=O)cc3)C(=O)c3ccccc32)c(C)c1 | > 100 µM | > 100 µM |
| CCCCCCOc1ccc(/C=N/NC(N)=S)cc1 | 6.39 µM | 32.7 µM |
| O=C1C2=C(C(=O)c3c(O)cccc31)C(c1ccco1)c1sc(=O)[nH]c1S2 (centres undefined) | 2.01 µM | 6.59 µM |
| NC(=O)C(Br)CBr (centres undefined) | 1.46 µM | 4.35 µM |
| COc1cc2c(c(OC)c1OC)-c1ccc(NNC(=S)N(Cc3cccc(C[N+](Cc4cccc(CNC56CC7CC(CC(C7)C5)C6)c4)(Cc4cccc(CNC56CC7CC(CC(C7)C5)C6)c4)Cc4cccc(CN(C(=S)NNc5ccc6c(cc5=O)[C@@H](NC(C)=O)CCc5cc(OC)c(OC)c(OC)c5-6)C56CC7CC(CC(C7)C5)C6)c4)c3)C34CC5CC(CC(C5)C3)C4)c(=O)cc1[C@@H](NC(C)=O)CC2 (some centres undefined) | 0.657 µM | 1.75 µM |
| COc1ccc(Nc2ccnc(NCCNc3ccnc4cc(Cl)ccc34)n2)cc1 | 0.997 µM | 3.22 µM |
| CCOCC(=O)N[C@H]1CCc2cc(OC)c(OC)c(OC)c2-c2ccc(SC)c(=O)cc21 | < 0.01 µM | > 100 µM |
| O=C1c2ccccc2-c2nccc3cc(Cl)nc1c23 | 0.23 µM | 0.602 µM |
| CCOC(=O)c1c2c(n3ccc(NC(=O)OC(C)(C)C)cc13)C(=O)c1ncccc1C2=O | 1.33 µM | 3.82 µM |
| COC(=O)Nc1nc2ccc(Oc3ccc(NC(=O)Nc4cccc(Br)c4)cc3)cc2[nH]1 | 1.29 µM | 6.28 µM |
| Cc1nc2cncc(C#Cc3cncc(C(=O)Nc4ccc(CN5CCN(C)CC5)c(C(F)(F)F)c4)c3)c2nc1C | 0.949 µM | 7.34 µM |

| Structure (SMILES) | GI50 | TGI |
| --- | --- | --- |
| COc1cc(C(=O)/C=C/c2c(-c3ccc(F)cc3)nc3sc(C)cn23)cc(OC)c1OC | 2.38 µM | > 100 µM |
| COc1cc2c(cc1OCCCOC1=C=C=C(c3ccc4c(c3)c3cc(-c5ccc(OCCCOc6cc7c(cc6OC)C(=O)N6CCC[C@H]6C=N7)cc5)ccc3n4S(=O)(=O)c3ccc(C)cc3)C=C1)N=C[C@@H]1CCCN1C2=O | 1.04 µM | 3.04 µM |
| Nc1nc2c(c3ncccc13)C(c1ccc(Cl)c(Cl)c1)Cc1ncccc1-2 (centres undefined) | 3.25 µM | 11.2 µM |
| O=C(Nc1ncc(Cc2ccccc2)s1)c1ccc2c(c1)OCCCO2 | 0.413 µM | > 100 µM |
| NS(=O)(=O)c1ccc(C2C3=C(CCCC3=O)OC3=C2C(=O)c2ccccc2C3=O)cc1 (centres undefined) | 0.231 µM | 0.671 µM |
| CNc1nc(C)c(-c2nc(Nc3cccc(S(N)(=O)=O)c3)ncc2F)s1 | 0.0354 µM | 0.116 µM |
| OCc1cccc(-c2ccc3ncc(-c4nc(NC5CC5)ncc4F)n3c2)c1 | 0.25 µM | 0.603 µM |
| COc1ccc(Nc2ncccc2/C=C/C(=O)c2cc(OC)c(OC)c(OC)c2)cc1 | 1.15 µM | 2.44 µM |
| O=CN1N=C(c2ccc(Nc3ccnc4cc(Cl)ccc34)cc2)CC1c1ccccc1 (centres undefined) | 0.975 µM | 3.15 µM |
| Fc1ccc(C2CC(c3cccc(Nc4ccncc4)c3)=NN2c2cc(Cl)cc(Cl)c2)cc1 (centres undefined) | 1.76 µM | 3.72 µM |
| CC/C=C\C/C=C\C[C@H](O)C/C=C1/C(=O)C=C[C@H]1C/C=C\CCC(=O)OC | 1.56 µM | 4.74 µM |
| COc1ccc(-c2nsc3c2NC(=O)CC3c2ccc3c(c2)OCO3)cc1 (centres undefined) | 0.612 µM | 25.9 µM |
| C[C@@H]1COCCN1c1nc(-c2cnc(N)cc2C(F)F)nc(N2[C@H](C)COC[C@@H]2C)n1 | 0.185 µM | 1.62 µM |
| COc1cc([C@@H]2c3cc4c(cc3C(Br)[C@H]3COC(=O)[C@H]23)OCO4)cc(OC)c1OC (some centres undefined) | 0.175 µM | 0.625 µM |
| Nc1ccc(N=Nc2ccccc2)c(N)n1 | 16.2 µM | 60.9 µM |
| COc1ccc(C(O)c2cc3c(N)c(C(=O)Nc4cccc(Cl)c4C)sc3nc2C)cc1 (centres undefined) | 0.742 µM | 1.48 µM |
| Cc1[nH]c(C(=O)Nc2ccc(C(=O)N3CCNCC3)cc2OC(C)C)c(Cl)c1Cl | 1.67 µM | 3.18 µM |
| Nc1c(C(=O)c2cccc(-c3ccc[n+]([O-])c3)c2)cnn1-c1ccc(F)cc1F | > 25 µM | > 25 µM |
| CC1=C(C(=O)Nc2ccc3[nH]ncc3c2)C(c2ccc(F)cc2)NC(=O)N1 (centres undefined) | > 25 µM | > 25 µM |
| C=C1C(=O)O[C@H]2[C@H]1CC/C(CNS(=O)(=O)c1ccc3ccccc3c1)=C\CC[C@@]1(C)O[C@@H]21 | 0.363 µM | 1.62 µM |
| CNC(=O)c1c(NC(=O)c2cccc(C(F)(F)F)c2)sc2c1CCC(=O)C2 | 0.396 µM | 2.3 µM |
| CN(C)C(=S)NN=C(c1ccccn1)c1ccccn1 | < 0.01 µM | 24 µM |
| CCc1ccc(-c2ccc(=O)n(-c3ccc(S(N)(=O)=O)cc3)n2)cc1 | 3.18 µM | > 100 µM |
| CCCCCCCCCCCCCC[P+](CCCCCC)(CCCCCC)CCCCCC | 0.0366 µM | 0.175 µM |
| O=S1(=O)N(Cc2ccccc2)[C@@H](Cc2ccccc2)C2O[C@H]2[C@H](Cc2ccccc2)N1Cc1ccccc1 (some centres undefined) | 0.274 µM | > 7.5 µM |
| Nc1ccccc1NC(=O)CCCCCCC(=O)Nc1ccc2c(c1)/C(=C/c1ccc[nH]1)C(=O)N2 | 1.83 µM | > 100 µM |
